Experimental data taken from ChEMBL document CHEMBL1201862, “PubChem BioAssay data set” (2004).
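Results reflect a 48-hour exposure of cells in 96-well plates to compound at five concentrations. Here, GI50 denotes the concentration required for 50% inhibition of growth.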 Calls of active or inactive are those of the source. Cut-off read from the data, not from the text of the source: active = GI50 up to about 1.1 µM and inactive = higher.

How the values were obtained:
Test in all cases: growth of human tumour cells (NCI), 48 h
A549 = tested on: A549
SF-295 = tested on: SF-295
MCF7 = tested on: MCF7
NCI-H460 = tested on: NCI-H460
OVCAR-3 = tested on: OVCAR-3
SK-MEL-28 = tested on: SK-MEL-28
RPMI-8226 = tested on: RPMI-8226
T47D = tested on: T47D
HCT-116 = tested on: HCT-116
SW-620 = tested on: SW-620
U-251 = tested on: U-251
NCI-H23 = tested on: NCI-H23
HT-29 = tested on: HT-29
CAKI-1 = tested on: CAKI-1
RXF 393 = tested on: RXF 393
M14 = tested on: M14
UACC-257 = tested on: UACC-257
SNB-75 = tested on: SNB-75
ACHN = tested on: ACHN
HOP-62 = tested on: HOP-62
HCT-15 = tested on: HCT-15
MDA-N = tested on: MDA-N
EKVX = tested on: EKVX
SN12C = tested on: SN12C
IGROV-1 = tested on: IGROV-1
NCI-H522 = tested on: NCI-H522
SR = tested on: SR
Hs-578T = tested on: Hs-578T
SF-268 = tested on: SF-268
SK-MEL-5 = tested on: SK-MEL-5
HL-60 = tested on: HL-60
K562 = tested on: K562
NCI/ADR-RES = tested on: NCI/ADR-RES
MOLT-4 = tested on: MOLT-4
SF-539 = tested on: SF-539
A498 = tested on: A498
MDA-MB-231 = tested on: MDA-MB-231
OVCAR-4 = tested on: OVCAR-4
COLO 205 = tested on: COLO 205
SK-OV-3 = tested on: SK-OV-3
TK-10 = tested on: TK-10
MDA-MB-435 = tested on: MDA-MB-435
UO-31 = tested on: UO-31
Malme-3M = tested on: Malme-3M
786-0 = tested on: 786-0
OVCAR-5 = tested on: OVCAR-5
PC-3 = tested on: PC-3
DU-145 = tested on: DU-145
SK-MEL-2 = tested on: SK-MEL-2
UACC-62 = tested on: UACC-62
BT-549 = tested on: BT-549
LOX IMVI = tested on: LOX IMVI
KM12 = tested on: KM12
OVCAR-8 = tested on: OVCAR-8
NCI-H226 = tested on: NCI-H226
CCRF-CEM = tested on: CCRF-CEM
HOP-92 = tested on: HOP-92
HCC 2998 = tested on: HCC 2998
SNB-19 = tested on: SNB-19

Nc1cc(CO)cc(Nc2c3ccccc3nc3ccccc23)c1
GI50 (A549): 18.2 µM (inactive) | GI50 (SF-295): 10.9 µM (inactive) | GI50 (MCF7): 15.5 µM (inactive) | GI50 (NCI-H460): 25.7 µM (inactive) | GI50 (OVCAR-3): 18.2 µM (inactive) | GI50 (SK-MEL-28): 17.8 µM (inactive) | GI50 (RPMI-8226): 29.8 µM (inactive) | GI50 (T47D): 18.4 µM (inactive) | GI50 (HCT-116): 15.1 µM (inactive) | GI50 (SW-620): 12.8 µM (inactive) | GI50 (U-251): 15.1 µM (inactive) | GI50 (NCI-H23): 15.9 µM (inactive) | GI50 (HT-29): 14.7 µM (inactive) | GI50 (CAKI-1): 17.5 µM (inactive) | GI50 (RXF 393): 16.8 µM (inactive) | GI50 (M14): 17.3 µM (inactive) | GI50 (UACC-257): 15.1 µM (inactive) | GI50 (SNB-75): 15.8 µM (inactive) | GI50 (ACHN): 17.2 µM (inactive) | GI50 (HOP-62): 14.7 µM (inactive) | GI50 (HCT-15): 17.6 µM | GI50 (MDA-N): 20.6 µM (inactive) | GI50 (EKVX): 16.8 µM (inactive) | GI50 (SN12C): 18.9 µM (inactive) | GI50 (IGROV-1): 16.9 µM (inactive) | GI50 (NCI-H522): 6.59 µM (inactive) | GI50 (SR): 53 µM (inactive) | GI50 (Hs-578T): 18.3 µM (inactive) | GI50 (SF-268): 17.9 µM (inactive) | GI50 (SK-MEL-5): 17 µM (inactive) | GI50 (HL-60): > 100 µM (inactive) | GI50 (K562): 14.2 µM (inactive) | GI50 (NCI/ADR-RES): 17.7 µM (inactive) | GI50 (MOLT-4): 4.5 µM (inactive) | GI50 (SF-539): 17.6 µM (inactive) | GI50 (A498): 24.6 µM (inactive) | GI50 (MDA-MB-231): 12.1 µM (inactive) | GI50 (OVCAR-4): 16 µM (inactive) | GI50 (COLO 205): 11.6 µM (inactive) | GI50 (SK-OV-3): 16 µM (inactive) | GI50 (TK-10): 16 µM (inactive) | GI50 (MDA-MB-435): 17 µM (inactive) | GI50 (UO-31): 18.4 µM (inactive) | GI50 (Malme-3M): 16.5 µM (inactive) | GI50 (786-0): 16.7 µM (inactive) | GI50 (OVCAR-5): 16.7 µM (inactive) | GI50 (PC-3): 15.5 µM (inactive) | GI50 (DU-145): 27.3 µM (inactive) | GI50 (SK-MEL-2): 14.1 µM (inactive) | GI50 (UACC-62): 17.4 µM (inactive) | GI50 (BT-549): 14.5 µM (inactive) | GI50 (LOX IMVI): 16.7 µM (inactive) | GI50 (KM12): 16.3 µM (inactive) | GI50 (OVCAR-8): 15.9 µM (inactive) | GI50 (NCI-H226): 18.2 µM (inactive) | GI50 (CCRF-CEM): 6.78 µM (inactive)

Nc1nc(F)nc2c1ncn2C1OC(CO)C(O)C1O (centres undefined)
GI50 (A549): 43 µM (inactive) | GI50 (SF-295): > 100 µM (inactive) | GI50 (MCF7): 57.7 µM (inactive) | GI50 (NCI-H460): 73.1 µM (inactive) | GI50 (OVCAR-3): > 100 µM (inactive) | GI50 (SK-MEL-28): > 77.3 µM (inactive) | GI50 (RPMI-8226): > 100 µM (inactive) | GI50 (T47D): > 70 µM (inactive) | GI50 (HCT-116): 39.5 µM (inactive) | GI50 (SW-620): 69 µM (inactive) | GI50 (U-251): > 81.5 µM (inactive) | GI50 (NCI-H23): 13.3 µM (inactive) | GI50 (HT-29): > 100 µM (inactive) | GI50 (CAKI-1): 34.6 µM (inactive) | GI50 (RXF 393): > 81.8 µM (inactive) | GI50 (M14): 8.53 µM (inactive) | GI50 (UACC-257): > 90.8 µM (inactive) | GI50 (SNB-75): > 100 µM (inactive) | GI50 (ACHN): 34 µM (inactive) | GI50 (HOP-62): 5.12 µM (inactive) | GI50 (HCT-15): > 75 µM | GI50 (MDA-N): > 58.6 µM (inactive) | GI50 (EKVX): > 100 µM (inactive) | GI50 (SN12C): 3.89 µM (inactive) | GI50 (IGROV-1): > 100 µM (inactive) | GI50 (NCI-H522): 32.7 µM (inactive) | GI50 (Hs-578T): > 100 µM (inactive) | GI50 (SF-268): > 61.7 µM (inactive) | GI50 (SK-MEL-5): 55.5 µM (inactive) | GI50 (HL-60): 42.5 µM (inactive) | GI50 (HOP-92): 8.79 µM (inactive) | GI50 (K562): > 76.6 µM (inactive) | GI50 (NCI/ADR-RES): 3.78 µM (inactive) | GI50 (MOLT-4): 1.14 µM (inactive) | GI50 (SF-539): > 100 µM (inactive) | GI50 (A498): > 60.3 µM (inactive) | GI50 (MDA-MB-231): > 100 µM (inactive) | GI50 (OVCAR-4): > 100 µM (inactive) | GI50 (COLO 205): 53.1 µM (inactive) | GI50 (SK-OV-3): 23.2 µM (inactive) | GI50 (TK-10): > 100 µM (inactive) | GI50 (MDA-MB-435): 35.7 µM (inactive) | GI50 (UO-31): 11.1 µM (inactive) | GI50 (HCC 2998): 49.3 µM (inactive) | GI50 (Malme-3M): 32.5 µM (inactive) | GI50 (786-0): 38.1 µM (inactive) | GI50 (OVCAR-5): > 100 µM (inactive) | GI50 (PC-3): 30.5 µM (inactive) | GI50 (SNB-19): 19.2 µM (inactive) | GI50 (DU-145): 15.7 µM (inactive) | GI50 (SK-MEL-2): > 100 µM (inactive) | GI50 (UACC-62): 58.6 µM (inactive) | GI50 (BT-549): 57.5 µM (inactive) | GI50 (LOX IMVI): 48.2 µM (inactive) | GI50 (KM12): > 100 µM (inactive) | GI50 (OVCAR-8): 4.61 µM (inactive) | GI50 (NCI-H226): > 100 µM (inactive) | GI50 (CCRF-CEM): 0.344 µM (active)
